Results as given in US12692262B2, “Substituted ureas as orexin receptor agonists” (Merck Sharp & Dohme LLC, priority 2020, dated 2026).

Biological target: T1, human OX2R (Homo sapiens, UniProt O43614)
T1 construct: expressed in transfected cells; host or cells: CHO (Chinese hamster ovary) cells grown under G418 selection
T1 sequence (O43614 1-444): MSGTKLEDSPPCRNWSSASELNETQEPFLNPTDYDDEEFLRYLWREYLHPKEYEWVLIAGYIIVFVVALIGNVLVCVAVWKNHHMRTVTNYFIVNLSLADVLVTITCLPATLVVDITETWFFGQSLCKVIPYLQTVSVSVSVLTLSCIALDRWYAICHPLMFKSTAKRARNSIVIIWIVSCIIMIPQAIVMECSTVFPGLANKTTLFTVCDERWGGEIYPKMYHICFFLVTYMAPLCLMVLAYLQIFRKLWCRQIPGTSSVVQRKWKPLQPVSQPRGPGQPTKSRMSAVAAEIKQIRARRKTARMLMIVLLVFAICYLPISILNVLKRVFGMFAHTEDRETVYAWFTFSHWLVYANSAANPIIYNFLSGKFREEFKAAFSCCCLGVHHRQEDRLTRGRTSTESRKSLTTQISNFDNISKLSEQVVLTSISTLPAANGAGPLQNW
Experiment: IPOne (IP-1 accumulation) assay in CHO cells expressing human OX2R
Assay type: cell-based
Conditions: for EC50: CHO cells expressing human OX2R, IP-One assay, 2 h incubation, four parameter logistic fit, read-out: OX2R Potency, EC50; for % of maximum agonist effect (relative to Orexin A): percent effect vs mean max effect of a reference compound at 1 uM (100% activity vs Orexin A), human OX2R
Excerpt: The utility of the compounds in accordance with the present invention as orexin receptor OX1R and/or OX2R agonists may be readily determined without undue experimentation by methodology well known in the art. Both the OX1R and/or OX2R G-coupled protein receptors (GPCRs) couple through the Gαq signaling pathway, which ultimately promotes calcium mobilization via inositol triphosphate (IP3) production. […] The utility of the compounds in accordance with the present invention as orexin receptor OX1R and/or OX2R agonists may be determined utilizing this assay.
In a typical experiment, the OX1 and OX2 receptor agonist activity is determined in accordance with the following general experimental method. Chinese hamster ovary (CHO) cells expressing human OX1R and/or the human OX2R were grown in Iscove's modified DMEM containing glutaMAX™, 1% G418, 100 U/mL penicillin, 100 μg/mL streptomycin and 10% heat-inactivated qualified fetal bovine serum (FBS). […] During this incubation, IP-one detection reagents were prepared (38:1:1 lysis buffer:D2:AB-cryptate reagents).
For each compound, data were fit to a four parameter logistic fit (ActivityBase software) and the EC50 was reported as the inflection point of the resulting curve. […] The intrinsic orexin receptor agonist activity of a compound which may be used in the present invention may be determined by these assays.

Row | Compound | EC50 [nM] | % of maximum agonist effect (relative to Orexin A) [%]
1 | CCN(C(=O)NC(C)(C)C#N)[C@H](C)c1cccc(-c2cn3ccnc3c(OC)n2)c1 [Example 2-25, (R)-3-(2-cyanopropan-2-yl)-1-ethyl-1-(1-(3-(8-methoxyimidazo[1,2-a]pyrazin-6-yl)phenyl)ethyl)urea] | 360 | 98.0
2 | CCN(C(=O)NC(C)c1nc(C)no1)[C@@H](c1cc(-c2cn3ccnc3c(OC)n2)c(OC)cn1)C(F)(F)F (stereo partly drawn) [Example 2-26, 1-ethyl-3-(1-(3-methyl-1,2,4-oxadiazol-5-yl)ethyl)-1-((S)-2,2,2-trifluoro-1-(5-methoxy-4-(8-methoxyimidazo[1,2-a]pyrazin-6-yl)pyridin-2-yl)ethyl)urea] | 8.6 | 100.5
3 | CCN(C(=O)N[C@@H]1C[C@@]1(C)C(F)(F)F)[C@@H](c1cc(-c2cn3ccnc3c(OC)n2)c(OC)cn1)C(F)(F)F [Example 2-27, 1-ethyl-3-((1R,2R)-2-methyl-2-(trifluoromethyl)-cyclopropyl)-1-((S)-2,2,2-trifluoro-1-(5-methoxy-4-(8-methoxyimidazo[1,2-a]pyrazin-6-yl)pyridin-2-yl)ethyl)urea] | 9.4 | 101.1
4 | CCN(C(=O)NC(C)C)[C@@H](c1cc(-c2cn3ccnc3c(OC)n2)c(OC)cn1)C(F)(F)F [Example 2-29, (S)-1-ethyl-3-isopropyl-1-(2,2,2-trifluoro-1-(5-methoxy-4-(8-methoxyimidazo[1,2-a]pyrazin-6-yl)pyridin-2-yl)ethyl)urea] | 23.8 | 96.0
5 | CCN(C(=O)NC1CC(CC(F)(F)F)C1)[C@@H](c1cc(-c2cn3ccnc3c(OC)n2)c(OC)cn1)C(F)(F)F (stereo partly drawn) [Example 2-30, (S)-1-ethyl-1-(2,2,2-trifluoro-1-(5-methoxy-4-(8-methoxyimidazo[1,2-a]pyrazin-6-yl)pyridin-2-yl)ethyl)-3-(3-(2,2,2-trifluoroethyl)cyclobutyl)urea] | 34.6 | 99.0
6 | CCN(C(=O)N[C@]1(C)C[C@H]1C(F)(F)F)[C@@H](c1cc(-c2cn3ccnc3c(OC)n2)c(OC)cn1)C(F)(F)F [Example 2-31, 1-ethyl-3-((1R,2R)-1-methyl-2-(trifluoromethyl)cyclopropyl)-1-((S)-2,2,2-trifluoro-1-(5-methoxy-4-(8-methoxyimidazo[1,2-a]pyrazin-6-yl)pyridin-2-yl)ethyl)urea] | 35.1 | 99.0
7 | CCN(C(=O)NC1CC1)[C@@H](c1cc(-c2cn3ccnc3c(OC)n2)c(OC)cn1)C(F)(F)F [Example 2-32, (S)-3-cyclopropyl-1-ethyl-1-(2,2,2-trifluoro-1-(5-methoxy-4-(8-methoxyimidazo[1,2-a]pyrazin-6-yl)pyridin-2-yl)ethyl)urea] | 40.8 | 101.0
8 | CCN(C(=O)NC1CC(C(F)(F)F)C1)[C@@H](c1cc(-c2cn3ccnc3c(OC)n2)c(OC)cn1)C(F)(F)F (stereo partly drawn) [Example 2-38, (S)-1-ethyl-1-(2,2,2-trifluoro-1-(5-methoxy-4-(8-methoxyimidazo[1,2-a]pyrazin-6-yl)pyridin-2-yl)ethyl)-3-(3-(trifluoromethyl)cyclobutyl)urea] | 4.2 | 99.7
9 | CCN(C(=O)N[C@H]1C[C@@]1(C)C(F)(F)F)[C@@H](c1cc(-c2cn3ccnc3c(OC)n2)c(OC)cn1)C(F)(F)F [Example 2-39, 1-ethyl-3-((1S,2R)-2-methyl-2-(trifluoromethyl)cyclopropyl)-1-((S)-2,2,2-trifluoro-1-(5-methoxy-4-(8-methoxyimidazo[1,2-a]pyrazin-6-yl)pyridin-2-yl)ethyl)urea] | 5.8 | 99.3

Second part, the compound after the results:

Row | EC50 [nM] | % of maximum agonist effect (relative to Orexin A) [%] | Compound
10 | 2.8 | 101.5 | CCN(C(=O)N[C@@H](CCC(F)(F)F)C(F)(F)F)[C@@H](c1cccc(-c2cn3ccnc3c(OC)n2)c1)C(F)(F)F [Example 2-22, N-ethyl-N′-[(2S)-1,1,1,5,5,5-hexafluoropentan-2-yl]-N-{2,2,2-trifluoro-1-[3-(8-methoxyimidazo[1,2-a]pyrazin-6-yl)phenyl]ethyl}urea]
11 | 2.7 | 100.8 | CCN(C(=O)N[C@@H](CCC(F)(F)F)C(F)(F)F)[C@@H](c1ccc(OC)c(-c2ccc3nccn3c2)c1)C(F)(F)F [Example 2-23, 1-ethyl-3-((S)-1,1,1,5,5,5-hexafluoropentan-2-yl)-1-((S)-2,2,2-trifluoro-1-(3-(imidazo[1,2-a]pyridin-6-yl)-4-methoxyphenyl)ethyl)urea]
12 | 16.1 | 99.1 | CCN(C(=O)N[C@@H](C(C)(C)C)C(F)(F)F)[C@@H](c1cc(-c2cn3ccnc3c(OC)n2)c(OC)cn1)C(F)(F)F [Example 2-28, 1-ethyl-1-((S)-2,2,2-trifluoro-1-(5-methoxy-4-(8-methoxyimidazo[1,2-a]pyrazin-6-yl)pyridin-2-yl)ethyl)-3-((S)-1,1,1-trifluoro-3,3-dimethylbutan-2-yl)urea]
13 | 0.8 | 101.6 | CCN(C(=O)NC(C1CC(F)(F)CCO1)C(F)(F)F)[C@H](C)c1cccc(-c2cn3ccnc3c(OC)n2)c1 (stereo partly drawn) [Example 2-33, 3-(1-(4,4-difluorotetrahydro-2H-pyran-2-yl)-2,2,2-trifluoroethyl)-1-ethyl-1-((R)-1-(3-(8-methoxyimidazo[1,2-a]pyrazin-6-yl)phenyl)ethyl)urea]
14 | 2.7 | 101.1 | CCN(C(=O)NC(CC(C)=O)C(F)(F)F)[C@@H](c1cc(-c2cn3ccnc3c(OC)n2)c(OC)cn1)C(F)(F)F (stereo partly drawn) [Example 2-34, 1-ethyl-1-((S)-2,2,2-trifluoro-1-(5-methoxy-4-(8-methoxyimidazo[1,2-a]pyrazin-6-yl)pyridin-2-yl)ethyl)-3-(1,1,1-trifluoro-4-oxopentan-2-yl)urea]
15 | 0.9 | 102.3 | CCN(C(=O)N[C@@H](CCC#N)C(F)(F)F)[C@@H](c1cc(-c2cn3ccnc3c(OC)n2)c(OC)cn1)C(F)(F)F [Example 2-35, 3-((S)-4-cyano-1,1,1-trifluorobutan-2-yl)-1-ethyl-1-((S)-2,2,2-trifluoro-1-(5-methoxy-4-(8-methoxyimidazo[1,2-a]pyrazin-6-yl)pyridin-2-yl)ethyl)urea]
16 | 0.7 | 100.5 | CCN(C(=O)N[C@@H](CCS(C)(=O)=O)C(F)(F)F)[C@@H](c1cc(-c2cn3ccnc3c(OC)n2)c(OC)cn1)C(F)(F)F [Example 2-36, 1-ethyl-1-((S)-2,2,2-trifluoro-1-(5-methoxy-4-(8-methoxyimidazo[1,2-a]pyrazin-6-yl)pyridin-2-yl)ethyl)-3-((S)-1,1,1-trifluoro-4-(methylsulfonyl)butan-2-yl)urea]
17 | 20 | 100.8 | CCCC(C#N)NC(=O)N(CC)[C@H](C)c1cccc(-c2cn3ccnc3c(OC)n2)c1 (stereo partly drawn) [Example 2-37, 3-(1-cyanobutyl)-1-ethyl-1-((R)-1-(3-(8-methoxyimidazo[1,2-a]pyrazin-6-yl)phenyl)ethyl)urea]
